Source: patent publication US7060673B2, “Fusion peptide of human parathyroid hormone derived peptide and tat peptide, preparation thereof, and skin slimming cosmetic composition comprising the same” (LG Household and Health Care Ltd., priority 2001, dated 2006)

Tests used:
[1] = system: 3T3-L1 cell differentiated into adipocyte; experiment: Lipolysis effects test (glycerol secretion by differentiated adipocytes); settings: 24 hours, absorbency at 540 nm
[2] = system: healthy adult women with local obesity or cellulite inside of a thigh; settings: O/W emulsion coated on one leg for one month, control emulsion on the other leg; 5 women
Protocol: In order to examine slimming effects, clinical tests were conducted on 5 healthy adult women of ages 18˜46 with local obesity or cellulite inside of a thigh (Method of testing primary irritant substances 38(187): pp1500–1541).
The fusion peptide prepared in Example 1 was prepared in the form of an O/W emulsion and used in the test. A control (O/W emulsion without sample) was coated on one leg, and an O/W emulsion comprising the compound of Chemical Formula 1 of the present invention was coated on the other leg, for one month, and then the thickness of the lipid layer was quantified.

| Compound | Lipolysis increase rate (%) ([1]; concentration 10^−5 M) | Lipolysis increase rate (%) ([1]; concentration 10^−6 M) | Lipolysis increase rate (%) ([1]; concentration 10^−7 M) | Lipolysis increase rate (%) ([1]; concentration 10^−8 M) | lipid layer decrease [2] [%] | Lipolysis increase rate (%) ([1]; concentration 10^−5 M, listed as compound represented by the Chemical Formula 1) |
| --- | --- | --- | --- | --- | --- | --- |
| CC(C)NCC(O)c1ccc(O)c(O)c1 (stereo not shown) [Isoproterenol, isoproterenol, reference compound] | 12.5 | 39.0 | 34.5 | 17.3 | – | – |
| KKKKKKKKKGKH | 43.4 | 10.3 | 17.4 | 8.6 | 18 | 43 |
